# Reference: patent publication US6482851B1, “Synthesis of dysidiolide and uses thereof” (Sloan-Kettering Institute for Cancer Research, priority 1998, dated 2002)
# “Also recorded” adds a separate entry of the source.
# What was measured:
# [1] = test system: lung carcinoma and murine leukemia cell lines; details: cited from earlier work
# [2] = test system: p21, p27, cyclin D1 and cyclin E; experiment: steady-state levels of other cell cycle regulators in MCF7 cells; assay type: cell-based, human; details: 50 μM, 24 hr
# Description: (A) Effect of 50 μM dysidiolide on the steady-state levels of Cdc25 A and C, and of other cell cycle regulators in MCF7 cells after a 24 hr treatment.
# human tumor cell lines = experiment: anchorage-dependent growth of human tumor cell lines; assay type: cell-based
# Description: (B) Effect of dysidiolide on anchorage-dependent growth of human tumor cell lines. Cells were grown in multiwell plates and treated with either various drug concentrations or with dimethylsulfoxide (vehicle control). Cell number was determined and the inhibitory concentration to induce 50% growth inhibition (IC50) was determined. (C) Furthermore, dysidiolide inhibited the growth of immortalized human mammary epithelial cells transformed by either the oncogene ras, the receptor tyrosine kinase Neu, or both agents. Again, the IC50 for growth inhibition was in the low μM range (IC50 −3 μM dysidiolide).
# In summary, the synthetic dysidiolide is an active drug in human tumor cell lines. It induces cytotoxicity, as detected by loss of Trypan blue exclusion and by the appearance of cells containing fragmented DNA via FACS analysis. […] Dysidiolide has the potential to be a cell cycle-targeted drug, which could be used alone or in combination with other treatments. In this regard, it may sensitize cells for DNA damaging treatments (i.e. act as a radiosensitizer). […] Cell lines derived from tumors of diverse origins were affected similarly.
# Cdk4 = Cdk4 kinase activity on immunoprecipitates from treated MCF7 cells; assay type: cell-based, human; details: 50 μM, 24 hr
# Description: (§1) Effect of a 24 hr treatment with 50 μM dysidiolide on the kinase activity of Cdk4, Cdk2 and Cdc2. Cdk were immunoprecipitated from MCF7 cell lysates obtained from cultures treated or not with dysidiolide for 24 hr. Histone H1 was used as substrate for Cdk2 and Cdc2, whereas GST-Rb was the substrate for Cdk4.
# (§2) To further characterize the effects of dysidiolide on cell cycle control, experiments were conducted at the molecular level. As Cdc25s (A, B and C) are positive regulators of cyclin-dependent kinases (Cdk) (reviewed in Draetta and Eckstein, BBA 1332: M53-M63, 1997) inhibition of Cdc25 is expected to result in inhibition of Cdk activity. MCF7 cells were treated with 2 or 10 μM dysidiolide or with DMSO (controls) for 2 or 4 hr. Cell extracts were used to measure the steady-state levels of Cdc25 A and C, and Cdk activity. […] However, a decrease in the levels of Cdc25 C (but not on A) was clearly noticeable (FIG. 9B). In the next experiment MCF7 cells were treated for 24 hr with 50 μM dysidiolide or with DMSO (control) for 24 hr. […] On the other hand, at these more stringent conditions, inhibition of Cdk2, Cdk4 and Cdc2 protein kinase activities was observed (FIG. 10A and FIG. 10B).
# Cdk2 [3] = experiment: in vitro kinase assay of Cdk2 immunoprecipitated from treated TSU-Pr1 cells; assay type: cell-based, human; details: 3.33 μM, TSU-Pr1, as early as 3 hours in drug
# Description: TSU-Pr1 cells were treated for 24 hours with either DMSO or 3.33 μM dysidiolide. Cells were pulse-labeled for 30 min with bromodeoxyuridine (BrdU) and analyzed by FACS. The R@ window contains BRDU-positive, S-phase cells. Consistent with the proposed inhibitory effect of dysidiolide on the positive cell cycle regulator Cdc25. the drug inhibited the activity of cyclin-dependent kinases (Cdk). Cdk4, 6 and 2 were immunoprecipitated from DMSO- or drug-treated TSU-Pr1 cell cultures. Activity was examined in vitro kinase assays. The activity of the three Cdks was inhibited in drug-treated cells, as early as 3 hours in drug.
# In vitro kinase assays of Cdk. TSU-Pr1 cells were treated with 3.33 μM dysidiolide for 0-24 hours. Samples were collected at various times and the activity of Cdk4, 6 and 2 was determined. Cdks were immunoprecipitated with specific antibodies and incubated with radiolabeled ATP plus either histH1 (for Cdk2) or GST-Rb (for Cdk4 and 6). Reactions were separated on SDS-polyacrylamide gels and the amount of phosphorylated product was determined by radiometric analysis.
# Cdk2 [4] = experiment: Cdk2 kinase activity on immunoprecipitates from treated MCF7 cells; assay type: cell-based, human
# Description: Effect of dysidiolide on the activity of Cdk2 and on the steady-state levels of Cdc25A and Cdc25C. MCF7 cells were treated for 2 or 4 hr with 0, 2 or 10 μM dysidiolide. A) The kinase activity of Cdk2 was assayed on immunoprecipitates using histone H1 as exogenous substrate. B) The steady-state levels of Cdc25 A and C were analyzed in total cell lysates with specific antibodies (Santa Cruz Biotechnology's sc097 and sc327 antibodies were used for detection of Cdc25 A and C, respectively).
# as §1
# To further characterize the effects of dysidiolide on cell cycle control, experiments were conducted at the molecular level. As Cdc25s (A, B and C) are positive regulators of cyclin-dependent kinases (Cdk) (reviewed in Draetta and Eckstein, BBA 1332: M53-M63, 1997) inhibition of Cdc25 is expected to result in inhibition of Cdk activity. MCF7 cells were treated with 2 or 10 μM dysidiolide or with DMSO (controls) for 2 or 4 hr. Cell extracts were used to measure the steady-state levels of Cdc25 A and C, and Cdk activity. […]
# [5] = test system: TSU-Pr1, PC3 and DU145 human prostrate cancer cells; experiment: apoptosis by FACS detection of fragmented DNA; assay type: cell-based; details: 24 hours
# Description: Cells containing fragmented DNA content were detected as the M1 (subG1) region on DNA content plots.
# Effects of dysidiolide at the cellular level. Dysidiolide was cytotoxic to several human tumor cell lines. […] (A) Human tumor cells were treated for 24 hours in the presence of various concentrations of dysidiolide or DMSO vehicle. Cells were analyzed by FACS and the percentage of cells bearing less than the 2 n DNA complement was determined. (B) Immunofluorescence micrographs of TSU-Pr1 human prostrate cancer cells untreated or treated for 6 hours with 2-50 μM dysidiolide.
# Cdc2 = Cdc2 kinase activity on immunoprecipitates from treated MCF7 cells; assay type: cell-based, human; details: 50 μM, 24 hr
# Description: as §1, §2
structure (smiles),measurement,setting,value
C=C(C)CCC[C@@]1(C)CCC[C@H]2C1=CC[C@H](C)[C@]2(C)C[C@H](O)C1=CC(=O)O[C@@H]1O (racemic) [dysidiolide],growth of lung carcinoma and murine leukemia cell lines,[1],inhibits growth
same,"levels of p21, p27, cyclin D1 and cyclin E",[2],reduced levels
same,cross-resistance with vinblastine or doxorubicin (MDR phenotype),human tumor cell lines; MCF7 vs. MCF/Adr and CEM vs. CEM/VBL100,no cross-resistance
same,IC50,"human tumor cell lines; a number of human tumor cancer lines, read-out: IC50 for growth inhibition of human tumor cancer lines",500 to 4500 nM
same,Cdk4 protein kinase activity,Cdk4,inhibition
same,Cdk2 activity,Cdk2 [3],inhibited
same,Cdk2 protein kinase activity,"Cdk2 [4]; 50 μM, 24 hr",inhibition
same,Cdk2 activity,"Cdk2 [4]; 2 or 10 μM, 2 or 4 hr",no significant changes
same,apoptosis,[5],massive apoptosis; also recorded: induced apoptotic cell death
same,Cdc2 protein kinase activity,Cdc2,inhibition
